From patent publication US10343992B2, “1-cyano-pyrrolidine compounds as USP30 inhibitors” (MISSION THERAPEUTICS LIMITED, priority 2015, dated 2019)
pIC50: −log10 of the molar value.

target: USP30 (Homo sapiens (Human), UniProt Q70CQ3); experiment: USP30 biochemical FP or FI IC50 assay; conditions: read-out: IC50 range
Experimental: USP30 Biochemical IC50 Assay
Dilution plates were prepared at 21 times the final concentration (2100 μM for a final concentration of 100 μM) in 50% DMSO in a 96-well polypropylene V-bottom plate (Greiner #651201). A typical 8-point dilution series would be 100, 30, 10, 3, 1, 0.3, 0.1, 0.03 μM final. Reactions were performed in duplicate in black 384 well plates (small volume, Greiner 784076) in a final reaction volume of 21 μl. Either 1 μl of 50% DMSO or diluted compound was added to the plate. USP30 was diluted in reaction buffer (40 mM Tris, pH 7.5, 0.005% Tween 20, 0.5 mg/ml BSA, 5 mM—beta-mercaptoethanol) to the equivalent of 0.05 μl/well and 10 μl of diluted USP30 was added to the compound. Enzyme and compound were incubated for 30 min at room temp. Reactions were initiated by the addition of 50 nM of TAMRA labelled peptide linked to ubiquitin via an iso-peptide bond as fluorescence polarisation substrate. Reactions were read immediately after addition of substrate and following a 2 hr incubation at room temperature. Readings were performed on a Pherastar Plus (BMG Labtech). λ Excitation 540 nm; λ Emission 590 nm.
USP30 Biochemical Fluorescence Intensity IC50 Assay
Dilution plates were prepared at 21 times the final concentration (2100 μM for a final concentration of 100 μM) in 50% DMSO in a 96-well polypropylene V-bottom plate (Greiner #651201). A typical 8-point dilution series would be 100, 30, 10, 3, 1, 0.3, 0.1, 0.03 μM final. Reactions were performed in duplicate in black 384 well plates (small volume, Greiner 784076) in a final reaction volume of 21 μl.
Either 1 μl of 50% DMSO or diluted compound was added to the plate. USP30 was diluted in reaction buffer (40 mM Tris, pH 7.5, 0.005% Tween 20, 0.5 mg/ml BSA, 5 mM—beta-mercaptoethanol) to the equivalent of 0.001 μl/well and 10 μl of diluted USP30 was added to the compound. Enzyme and compound were incubated for 30 min at room temp. Reactions were initiated by the addition of Ubiquitin-Rhodamine 110 (U-555; Boston Biochem) at a final concentration of 100 nM. Reactions were read immediately after addition of substrate and following a 2 h incubation at room temperature. Readings were performed on a Pherastar Plus (BMG Labtech). λ Excitation 487 nm; λ Emission 535 nm.

Sequence of USP30 (Q70CQ3 57-517): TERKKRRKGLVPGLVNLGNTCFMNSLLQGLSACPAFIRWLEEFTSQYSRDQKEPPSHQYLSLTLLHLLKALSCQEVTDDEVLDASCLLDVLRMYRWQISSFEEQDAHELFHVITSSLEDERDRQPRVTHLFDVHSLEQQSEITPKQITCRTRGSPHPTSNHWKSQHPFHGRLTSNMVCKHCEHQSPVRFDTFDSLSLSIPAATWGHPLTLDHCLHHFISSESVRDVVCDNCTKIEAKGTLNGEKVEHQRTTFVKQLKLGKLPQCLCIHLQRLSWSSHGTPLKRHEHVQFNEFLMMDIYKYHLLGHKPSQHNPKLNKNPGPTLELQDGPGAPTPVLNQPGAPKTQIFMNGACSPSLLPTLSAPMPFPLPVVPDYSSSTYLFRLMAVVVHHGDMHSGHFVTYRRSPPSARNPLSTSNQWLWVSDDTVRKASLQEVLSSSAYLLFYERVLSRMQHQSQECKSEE

| SMILES | pIC50 |
| --- | --- |
| CO[C@H]1CN(C#N)C[C@@H]1N(C)C(=O)c1ccc(-c2cnn(C)c2)cc1 (relative stereo) [Example 178, N-((trans)-1-cyano-4-methoxypyrrolidin-3-yl)-N-methyl-4-(1-methyl-1H-pyrazol-4-yl)benzamide] | 6.00 to 7.00 |
| N#CN1CC[C@@H](NC(=O)c2ccc(-c3ccccc3)cn2)C1 [Example 1, (R)—N-(1-cyanopyrrolidin-3-yl)-5-phenylpicolinamide] | 6.00 to 7.00 |
| COc1cc(C(=O)N[C@@H]2CCN(C#N)C2)ccc1-c1cnn(C)c1 [Example 2, (R)—N-(1-cyanopyrrolidin-3-yl)-3-methoxy-4-(1-methyl-1H-pyrazol-4-yl)benzamide] | > 7.00 |
| N#CN1CCC(NC(=O)c2ccc(-c3ccccc3Cl)cc2)C1 (stereo not drawn) [Example 3, 2′-chloro-N-(1-cyanopyrrolidin-3-yl)-[1,1′-biphenyl]-4-carboxamide] | > 7.00 |
| CN(Cc1ccccc1)c1ccc(C(=O)NC2CCN(C#N)C2)cn1 (stereo not drawn) [Example 4, 6-(benzyl(methyl)amino)-N-(1-cyanopyrrolidin-3-yl)nicotinamide] | 6.00 to 7.00 |
| N#CN1CC[C@@H](NC(=O)N2CC(c3ccccc3)C2)C1 [Example 5, (R)—N-(1-cyanopyrrolidin-3-yl)-3-phenylazetidine-1-carboxamide] | 6.00 to 7.00 |
| C[C@@H]1CN(c2ccc(C(=O)N[C@@H]3CCN(C#N)C3)cc2F)C[C@H](C)O1 [Example 6, N—((R)-1-cyanopyrrolidin-3-yl)-4-((cis)-2,6-dimethylmorpholino)-3-fluorobenzamide] | 6.00 to 7.00 |
| N#CN1CCC(NC(=O)c2ccc(N3CCC(Oc4ccccc4)CC3)nc2)C1 (stereo not drawn) [Example 22, N-(1-cyanopyrrolidin-3-yl)-6-(4-phenoxypiperidin-1-yl)nicotinamide] | 6.00 to 7.00 |
| N#CN1CCC(NC(=O)c2ccnc(N3CCc4ccccc4C3)c2)C1 (stereo not drawn) [Example 27, N-(1-cyanopyrrolidin-3-yl)-2-(3,4-dihydroisoquinolin-2(1H)-yl)isonicotinamide] | 6.00 to 7.00 |
| N#CN1CC[C@@H](NC(=O)c2cccc(-c3ccccc3)n2)C1 [Example 29, (R)-N-(1-cyanopyrrolidin-3-yl)-6-phenylpicolinamide] | 6.00 to 7.00 |
| N#CN1CC[C@@H](NC(=O)c2cc(-c3ccccc3)ccn2)C1 [Example 30, (R)-N-(1-cyanopyrrolidin-3-yl)-4-phenylpicolinamide] | 6.00 to 7.00 |
| N#CN1CC[C@@H](NC(=O)c2ccc(N3CCOCC3)c(F)c2)C1 [Example 32, (R)-N-(1-cyanopyrrolidin-3-yl)-3-fluoro-4-morpholinobenzamide] | 6.00 to 7.00 |
| N#CN1CC[C@@H](NC(=O)c2cc(-c3ccccc3)no2)C1 [Example 33, (R)-N-(1-cyanopyrrolidin-3-yl)-3-phenylisoxazole-5-carboxamide] | 6.00 to 7.00 |
| N#CN1CC[C@@H](NC(=O)c2cc(-c3ccncc3)on2)C1 [Example 34, (R)-N-(1-cyanopyrrolidin-3-yl)-5-(pyridin-4-yl)isoxazole-3-carboxamide] | 6.00 to 7.00 |
| N#CN1CC[C@@H](NC(=O)c2ccc(-c3ccccc3)cc2)C1 [Example 35, (R)-N-(1-cyanopyrrolidin-3-yl)-[1,1′-biphenyl]-4-carboxamide] | > 7.00 |
| N#CN1CC[C@@H](NC(=O)c2cnc(-c3ccccc3Cl)s2)C1 [Example 37, (R)-2-(2-chlorophenyl)-N-(1-cyanopyrrolidin-3-yl)thiazole-5-carboxamide] | > 7.00 |
| N#CN1CC[C@@H](NC(=O)c2ccc(-c3ccncc3Cl)cc2)C1 [Example 38, (R)-4-(3-chloropyridin-4-yl)-N-(1-cyanopyrrolidin-3-yl)benzamide] | > 7.00 |
| COc1cc(C(=O)N[C@@H]2CCN(C#N)C2)ccc1-c1ccncc1Cl [Example 39, (R)-4-(3-chloropyridin-4-yl)-N-(1-cyanopyrrolidin-3-yl)-3-methoxybenzamide] | > 7.00 |
| COc1cc(C(=O)N[C@@H]2CCN(C#N)C2)ccc1-c1ccnc(C)c1 [Example 40, (R)-N-(1-cyanopyrrolidin-3-yl)-3-methoxy-4-(2-methylpyridin-4-yl)benzamide] | > 7.00 |
| COc1cc(C(=O)N[C@@H]2CCN(C#N)C2)ccc1-c1ccnc(N2CCOCC2)c1 [Example 41, (R)-N-(1-cyanopyrrolidin-3-yl)-3-methoxy-4-(2-morpholinopyridin-4-yl)benzamide] | 6.00 to 7.00 |
| N#CN1CC[C@@H](NC(=O)c2ccc(F)c(-c3ccncc3)c2)C1 [Example 42, (R)-N-(1-cyanopyrrolidin-3-yl)-4-fluoro-3-(pyridin-4-yl)benzamide] | 6.00 to 7.00 |
| Cn1cc(-c2cc(C(=O)N[C@@H]3CCN(C#N)C3)ccc2F)cn1 [Example 43, (R)-N-(1-cyanopyrrolidin-3-yl)-4-fluoro-3-(1-methyl-1H-pyrazol-4-yl)benzamide] | 6.00 to 7.00 |
| Cn1cc(-c2ccc(C(=O)N[C@@H]3CCN(C#N)C3)cc2)cn1 [Example 44, (R)-N-(1-cyanopyrrolidin-3-yl)-4-(1-methyl-1H-pyrazol-4-yl)benzamide] | > 7.00 |

The remaining lines, values ahead:

| pIC50 | SMILES |
| --- | --- |
| 6.00 to 7.00 | N#CN1C[C@H]2CCN(C(=O)c3cc(-c4ccccc4)n[nH]3)[C@H]2C1 (stereo in doubt) [Example 246, 1-(3-phenyl-1H-pyrazole-5-carbonyl)hexahydropyrrolo[3,4-b]pyrrole-5(1H)-carbonitrile] |
| 6.00 to 7.00 | Cn1cc(-c2cnc(C(=O)N[C@@H]3CCN(C#N)C3)nc2)cn1 [Example 45, (R)-N-(1-cyanopyrrolidin-3-yl)-5-(1-methyl-1H-pyrazol-4-yl)pyrimidine-2-carboxamide] |
| 6.00 to 7.00 | N#CN1CC[C@@H](NC(=O)N2CCC(c3ccccc3)C2)C1 (stereo partly drawn) [Example 46, N-((R)-1-cyanopyrrolidin-3-yl)-3-phenylpyrrolidine-1-carboxamide] |
| 5.00 to 6.00 | N#CN1CC[C@H](NC(=O)c2ccc(-c3ccncc3)cc2)C1 [Example 47, (S)-N-(1-cyanopyrrolidin-3-yl)-4-(pyridin-4-yl)benzamide] |
| 5.00 to 6.00 | N#CN1CC[C@H](NC(=O)c2cccc(-c3ccccc3)n2)C1 [Example 48, (S)-N-(1-cyanopyrrolidin-3-yl)-6-phenylpicolinamide] |
| 6.00 to 7.00 | CN(C(=O)c1ccc(-c2ccncc2Cl)cc1)[C@@H]1CCN(C#N)C1 [Example 49, (R)-4-(3-chloropyridin-4-yl)-N-(1-cyanopyrrolidin-3-yl)-N-methylbenzamide] |
| 6.00 to 7.00 | CN(C(=O)Nc1cn2ccccc2n1)[C@@H]1CCN(C#N)C1 [Example 50, (R)-1-(1-cyanopyrrolidin-3-yl)-3-(imidazo[1,2-a]pyridin-2-yl)-1-methylurea] |
| 6.00 to 7.00 | N#CN1C[C@H]2CCN(C(=O)c3ccc(-c4ccccc4)[nH]c3=O)[C@H]2C1 [Example 61, (3aR,6aR)-1-(2-oxo-6-phenyl-1,2-dihydropyridine-3-carbonyl)hexahydropyrrolo[3,4-b]pyrrole-5(1H)-carbonitrile] |
| 6.00 to 7.00 | CC(C)C(=O)N(C)c1cccc(C(=O)N[C@@H]2CCN(C#N)C2)c1 [Example 62, (R)—N-(1-cyanopyrrolidin-3-yl)-3-(N-methylisobutyramido)benzamide] |
| 6.00 to 7.00 | N#CN1CC[C@@H](NC(=O)c2ncc(-c3ccccc3)cn2)C1 [Example 63, (R)—N-(1-cyanopyrrolidin-3-yl)-5-phenylpyrimidine-2-carboxamide] |
